Results taken from PMC10489938, “Developing an Amide-Spacered Triterpenoid Rhodamine Hybrid of Nano-Molar Cytotoxicity Combined with Excellent Tumor Cell/Non-Tumor Cell Selectivity” (Molecules, 2023).
Structures can show the parent of a compound that is named as a salt. Where two headings read alike, the source gives them in different places. Blank lines part the entries; values can stand above or below the compound they belong to.

What was measured:
[1] = SRB cytotoxicity assay, NIH 3T3; format: cell-based, murine; conditions: mouse, NIH 3T3 non-malignant fibroblasts, Table 1, 72 h of treatment, cut-off 30 μM
Method: (§1) Sulforhodamine (SRB) assays were performed to evaluate the cytotoxicity of the compounds. First, the cytotoxicity of the different rhodamines was determined; the results of these assays are compiled in Table 1 and Table 2 and depicted in Figure 1.
(§2) Experimental equipment: as previously described biological assays were performed as previously reported employing cell lines obtained from the Department of Oncology [Martin-Luther-University Halle Wittenberg; they were bought from ATCC [2, 4, 7]]. Rhodamine 101 B, as well as asiatic acid, were obtained from local vendors and used as received.
(§3) For the SRB assay and staining experiments: as previously described.

[2] = system: MCF7 (breast adenocarcinoma); experiment: SRB cytotoxicity assay, MCF7; format: cell-based, human; conditions: read-out: Cytotoxicity (EC50) MCF7
Method: as §1, §2, §3

[3] = system: A2780 (ovarian carcinoma); experiment: SRB cytotoxicity assay, A2780; format: cell-based, human; conditions: read-out: Cytotoxicity (EC50) A2780
Method: as §1, §2, §3

[4] = system: A375 (melanoma); experiment: SRB cytotoxicity assay, A375; format: cell-based, human; conditions: read-out: Cytotoxicity (EC50) A375
Method: as §1, §2, §3

[5] = system: human tumor cell lines and non-malignant fibroblasts (NIH 3T3); experiment: SRB cytotoxicity assay, several cell lines stated together; format: cell-based; conditions: all human tumor cell lines and non-malignant fibroblasts (NIH 3T3), limits of the assay
Method: as §1, §2, §3

[6] = system: HT29 (colorectal carcinoma); experiment: SRB cytotoxicity assay, HT29; format: cell-based, human; conditions: read-out: Cytotoxicity (EC50) HT29
Method: as §1, §2, §3

[7] = system: HeLa (cervical adenocarcinoma); experiment: SRB cytotoxicity assay, HeLa; format: cell-based, human; conditions: read-out: Cytotoxicity (EC50) HeLa
Method: as §1, §2, §3

[8] = system: NIH 3T3 (non-malignant fibroblasts, murine); experiment: SRB cytotoxicity assay, NIH 3T3; format: cell-based; conditions: Table 1, 72 h of treatment, cut-off 30 μM
Method: as §1, §2, §3

[9] = Table 1, SRB assay, 72 h of treatment, cut-off 30 μM

Compound: CC(=O)OC[C@@]1(C)C2CC[C@]3(C)[C@H](CC=C4[C@@H]5[C@@H](C)[C@H](C)CC[C@]5(C(=O)N5CCN(C(=O)c6ccccc6C6=c7cc8c9c(c7Oc7c6cc6c%10c7CCCN%10CCC6)CCC[N+]=9CCC8)CC5)CC[C@]43C)[C@@]2(C)C[C@@H](OC(C)=O)[C@@H]1OC(C)=O (some centres unmarked) (as salt: chloride) [compound 10]
melting point: 244 to 247 °C

Compound: CC(=O)OC[C@@]1(C)C2CC[C@]3(C)[C@H](CC=C4[C@@H]5[C@@H](C)[C@H](C)CC[C@]5(C(=O)N5CCCN(C(=O)c6ccccc6-c6c7ccc(=[N+](C)C)cc-7oc7cc(N(C)C)ccc67)CC5)CC[C@]43C)[C@@]2(C)C[C@@H](OC(C)=O)[C@@H]1OC(C)=O (stereo partly drawn) (as salt: chloride) [compound 11, (2α,3β,4α)-9-[2-{[4-(2α,3β,23-Tris(Acetyloxy)-urs-12-en-28-oyl)-Homopiperazinyl]Carbonyl}Phenyl]-3,6-Bis(Dimethylamino)-Xanthylium Chloride]
melting point: 258 to 260 °C

Compound: CC(=O)OC[C@@]1(C)C2CC[C@]3(C)[C@H](CC=C4[C@@H]5[C@@H](C)[C@H](C)CC[C@]5(C(=O)N5CCCN(C(=O)c6ccccc6C6=c7cc8c9c(c7Oc7c6cc6c%10c7CCCN%10CCC6)CCC[N+]=9CCC8)CC5)CC[C@]43C)[C@@]2(C)C[C@@H](OC(C)=O)[C@@H]1OC(C)=O (some centres unmarked) (as salt: chloride) [compound 15]
melting point: 287 to 289 °C

Compound: CN(C)c1ccc2c(-c3ccccc3C(=O)O)c3ccc(=[N+](C)C)cc-3oc2c1 [Rh1, reference compound]
EC50 at 72 h [1]: > 30 µM | EC50 ([2]; Homo sapiens, MCF7, 72 h): > 30 µM | EC50 ([3]; Homo sapiens, A2780, 72 h): > 30 µM | EC50 ([4]; Homo sapiens, A-375, 72 h): > 30 µM | EC50 ([5]; NIH3T3): > 30 µM | EC50 ([6]; Homo sapiens, HT-29, 72 h): > 30 µM | EC50 ([7]; Homo sapiens, HeLa, 72 h): > 30 µM

Compound: rhodamine B [Rh2, reference compound]
EC50 [8]: > 30 µM | EC50 [2, 9]: > 30 µM | EC50 [3, 9]: > 30 µM | EC50 [4, 9]: > 30 µM | EC50 [5]: > 30 µM | EC50 [6, 9]: > 30 µM | EC50 [7, 9]: > 30 µM

Next, values leading:

melting point: 224 to 225 °C
Compound: CCCN(CCC)c1ccc2c(-c3ccccc3C(=O)N3CCCN(C(=O)[C@]45CC[C@@H](C)[C@H](C)[C@H]4C4=CC[C@@H]6[C@@]7(C)C[C@@H](OC(C)=O)[C@H](OC(C)=O)[C@@](C)(COC(C)=O)C7CC[C@@]6(C)[C@]4(C)CC5)CC3)c3ccc(=[N+](CCC)CCC)cc-3oc2c1 (stereo partly drawn) (as salt: chloride) [compound 13, (2α,3β,4α)-9-[2-{[4-(2α,3β,23-Tris(Acetyloxy)-urs-12-en-28-oyl)-Homopiperazinyl]Carbonyl}Phenyl]-3,6-Bis(Dipropylamino)-Xanthylium Chloride]

melting point: 210 to 213 °C
Compound: CCCCN(CCCC)c1ccc2c(-c3ccccc3C(=O)N3CCCN(C(=O)[C@]45CC[C@@H](C)[C@H](C)[C@H]4C4=CC[C@@H]6[C@@]7(C)C[C@@H](OC(C)=O)[C@H](OC(C)=O)[C@@](C)(COC(C)=O)C7CC[C@@]6(C)[C@]4(C)CC5)CC3)c3ccc(=[N+](CCCC)CCCC)cc-3oc2c1 (stereo partly drawn) (as salt: chloride) [compound 14, (2α,3β,4α)-9-[2-{[4-(2α,3β,23-Tris(Acetyloxy)-urs-12-en-28-oyl)-Homopiperazinyl]Carbonyl}Phenyl]-3,6-Bis(Dibutylamino)-Xanthylium Chloride]

melting point: 224 to 226 °C
Compound: CC(=O)OC[C@@]1(C)C2CC[C@]3(C)[C@H](CC=C4[C@@H]5[C@@H](C)[C@H](C)CC[C@]5(C(=O)N5CCCN(C(=O)c6ccccc6-c6c7ccc(=[N+](C)C)cc-7oc7cc(N(C)C)ccc67)CCC5)CC[C@]43C)[C@@]2(C)C[C@@H](OC(C)=O)[C@@H]1OC(C)=O (stereo partly drawn) (as salt: chloride) [compound 16, (2α,3β,4α)-9-[2-[{4-(2α,3β,23-Tris(Acetyloxy)-urs-12-en-28-oyl)-1,5-Diazocan-1-Yl]Carbonyl}Phenyl]-3,6-Bis(Dimethylamino)-Xanthylium Chloride]

melting point: 222 to 227 °C
Compound: CCN(CC)c1ccc2c(-c3ccccc3C(=O)N3CCCN(C(=O)[C@]45CC[C@@H](C)[C@H](C)[C@H]4C4=CC[C@@H]6[C@@]7(C)C[C@@H](OC(C)=O)[C@H](OC(C)=O)[C@@](C)(COC(C)=O)C7CC[C@@]6(C)[C@]4(C)CC5)CCC3)c3ccc(=[N+](CC)CC)cc-3oc2c1 (stereo partly drawn) (as salt: chloride) [compound 17, (2α,3β,4α)-9-[2-[{4-(2α,3β,23-Tris(Acetyloxy)-urs-12-en-28-oyl)-1,5-Diazocan-1-Yl]Carbonyl}Phenyl]-3,6-Bis(Diethylamino)-Xanthylium Chloride]

melting point: 207 to 209 °C
Compound: CCCN(CCC)c1ccc2c(-c3ccccc3C(=O)N3CCCN(C(=O)[C@]45CC[C@@H](C)[C@H](C)[C@H]4C4=CC[C@@H]6[C@@]7(C)C[C@@H](OC(C)=O)[C@H](OC(C)=O)[C@@](C)(COC(C)=O)C7CC[C@@]6(C)[C@]4(C)CC5)CCC3)c3ccc(=[N+](CCC)CCC)cc-3oc2c1 (stereo partly drawn) (as salt: chloride) [compound 18, (2α,3β,4α)-9-[2-[{4-(2α,3β,23-Tris(Acetyloxy)-urs-12-en-28-oyl)-1,5-Diazocan-1-Yl]Carbonyl}Phenyl]-3,6-Bis(Dipropylamino)-Xanthylium Chloride]

melting point: 215 to 218 °C
Compound: CCCCN(CCCC)c1ccc2c(-c3ccccc3C(=O)N3CCCN(C(=O)[C@]45CC[C@@H](C)[C@H](C)[C@H]4C4=CC[C@@H]6[C@@]7(C)C[C@@H](OC(C)=O)[C@H](OC(C)=O)[C@@](C)(COC(C)=O)C7CC[C@@]6(C)[C@]4(C)CC5)CCC3)c3ccc(=[N+](CCCC)CCCC)cc-3oc2c1 (stereo partly drawn) (as salt: chloride) [compound 19, (2α,3β,4α)-9-[2-[{4-(2α,3β,23-Tris(Acetyloxy)-urs-12-en-28-oyl)-1,5-Diazocan-1-Yl]Carbonyl}Phenyl]-3,6-Bis(Dibutylamino)-Xanthylium Chloride]
